Assay results published in patent US5089494A, “4-phenylphthalazine derivatives which inhibit platelet aggregation” (Mitsubishi Kasei Corporation, priority 1990, dated 1992).

What was measured:
platelet aggregation [1] = test: Platelet aggregation-inhibitory activity in vitro (collagen-induced, rat platelet rich plasma); assay type: cell-based; settings: for inhibition at 0.3 µM: 3 × 10^-7 M; for inhibition at 0.3 µM / inhibition at 1 µM / inhibition at 0.1 µM: read-out: in vitro Inhibitory ratio
Protocol: Platelet aggregation-inhibitory activity in vitro
Rat arterial blood was centrifuged to obtain platelet rich plasma.
Platelet aggregation inhibitory ratio was calculated by the following formula: [formula] Tc: Aggregation degree where only a solvent was added. Ts: Aggregation degree where a solution of the test compound was added.

platelet aggregation [2] = test: Platelet aggregation inhibitory activity ex vivo (by oral administration); assay type: in vivo, male Wistar ST rats; settings: 1 hour, collagen 7 to 10 μg/ml, rat
Protocol: Platelet aggregation inhibitory activity ex vivo (by oral administration)
A group of 8 male Wistar ST rats each weighing about 250 grams were used. To the test animal was orally administered 4 ml/kg of a solution made by suspending a test compound in 1% aqueous tragacanth solution, and one hour later blood was collected from common carotid artery with a cannula. […] The residue was further centrifuged by […] for 15 minutes and the supernatant was recovered as poor platelet plasma (PPP). The plasma samples were used for assaying the platelet aggregating ability.
As an aggregation inducer, 7 to 10 μg/ml of collagen (Hormon-Chemie) was used.
Platelet Aggregation-inhibitory ratio was calculated by the following formula: [formula] A: Aggregating ratio of the group (control) in which only 1% aqueous tragacanth solution was administered.
B: Aggregating ratio of the group in which a solution of the test compound in tragacanth solution was administered.

[3] = tested on: rat left coronary artery ligation-induced cardiac infarction; test: Activity to rat left coronary artery ligation-induced cardiac infarction; assay type: in vivo, male SD rats; settings: 60 minutes prior to ligation
Description: Activity of the compounds (I) to rat left coronary artery ligation-induced cardiac infarction
A group of 8 male SD rats weighing 200 to 250 g were used. The rats were fixed at the dosal position under light ether paralysis, subjected to longitudinal incission in about 1.5 cm along the sternal left line to make thoractonomy under breaking the heart sac and exposing the heart. After ligating the left main coronary artery at 1 to 2 mm from the origin with black blade silk suture (Hama Ika Kogyo, 4-0), the heart was returned at the original position and the breast was closed immediately. The bilateral breast was pressed to exclude the air in the thoracic cavity to resume respiration. […] Twenty-four hours after ligation, the blood was collected from the ventral vena cava, and the rat was killed by complete bleeding. The heart was taken out, and the cross circular slice (about 2 mm) at the central part of the heart was incubated at 37° C. in the dark for 20 minutes in 20 ml of 1% solution of TTC (tryphenyl tetrazolium chloride, Wako Junyaku) in 0.09 M phosphate buffer (pH 8.6). The slice was photographed under a stereoscopic microscope, and the colored slides were prepared therefrom. The slides were projected on the wall, and the sections, the infarction parts (TTC non-dyed part) and non-infarction parts (TTC dyed part), were traced. So, the area of the infarction part in the total section area was calculated. A solution made by suspending the test compound in 1% aqueous tragacanth solution was orally administered 60 minutes prior to the coronary artery ligation. [formula] A: Infarction ratio where only 1% tragacanth solution was administered for control.
B: Infarction ratio where the tragacanth solution containing the test compound was administered.

| SMILES | inhibition at 1 µM (platelet aggregation [1]; 10^-6 M) [%] | inhibition at 0.1 µM (platelet aggregation [1]; 10^-7 M) [%] | other results |
| --- | --- | --- | --- |
| CC(Nc1nnc(-c2ccccc2)c2ccccc12)c1ccccc1Cl (racemic) [82 (DL)] | 65.5 | – | inhibition at 0.3 µM (platelet aggregation [1]): 58.5% |
| c1ccc(-c2nnc(NC3(c4ccccc4)CCCCC3)c3ccccc23)cc1 [compound 136] | – | 94.7 | – |
| Cc1cccc(C(C)Nc2nnc(-c3ccccc3)c3ccccc23)c1 (racemic) [57 (DL)] | – | 90.3 | ex vivo Inhibitory ratio (p.o.) (platelet aggregation [2]; 1 mg/kg p.o.): 61.8% |
| CC(Nc1nnc(-c2ccccc2)c2ccccc12)c1ccc(F)cc1 (racemic) [85 (DL)] | – | 10.2 | inhibition at 0.3 µM (platelet aggregation [1]): 94.1% |
| Cc1ccccc1C(C)Nc1nnc(-c2ccccc2)c2ccccc12 (racemic) [58 (DL)] | – | 89.9 | – |
| CC(Nc1nnc(-c2ccccc2)c2ccccc12)c1ccc(C(F)(F)F)cc1 (racemic) [91 (DL)] | 22.5 | – | – |
| CCCC(Nc1nnc(-c2ccccc2)c2ccccc12)c1ccccc1 (racemic) [3 (DL)] | – | 65.9 | inhibition at 0.3 µM (platelet aggregation [1]): 96.8% |
| CC(Nc1nnc(-c2ccc(Cl)cc2)c2ccccc12)c1ccccc1 (racemic) [34 (DL)] | 100 | – | – |
| Cc1ccc(C(C)(C)Nc2nnc(-c3ccccc3)c3ccccc23)cc1 [compound 166] | 100 | 100 | – |
| Cc1cccc(C(C)(C)Nc2nnc(-c3ccccc3)c3ccccc23)c1 [compound 167] | 100 | 100 | – |
| CC(C)(C)C(Nc1nnc(-c2ccccc2)c2ccccc12)c1ccccc1 (racemic) [8 (DL)] | 100 | 100 | ex vivo Inhibitory ratio (p.o.) (platelet aggregation [2]; 1 mg/kg p.o.): 22.0%; ex vivo Inhibitory ratio (p.o.) (platelet aggregation [2]; 3 mg/kg p.o.): 35.1%; ex vivo Inhibitory ratio (p.o.) (platelet aggregation [2]; 10 mg/kg p.o.): 69.9% |
| CC(Nc1nnc(-c2ccccc2)c2ccccc12)c1cccc(Cl)c1 (racemic) [81 (DL)] | 98.3 | 40.7 | ex vivo Inhibitory ratio (p.o.) (platelet aggregation [2]; 10 mg/kg p.o.): 72.5% |
| CC(C)(Nc1nnc(-c2ccccc2)c2ccccc12)c1ccccc1 [Compound No. 119, 1-α,α-dimethylbenzylamino-4-phenylphthalazine] | – | 93 | – |
| CCC(Nc1nnc(-c2ccccc2)c2ccccc12)c1ccccc1 (racemic) [2 (DL)] | 96.4 | 100 | ex vivo Inhibitory ratio (p.o.) (platelet aggregation [2]; 1 mg/kg p.o.): 37.8%; ex vivo Inhibitory ratio (p.o.) (platelet aggregation [2]; 3 mg/kg p.o.): 52.3%; ex vivo Inhibitory ratio (p.o.) (platelet aggregation [2]; 10 mg/kg p.o.): 94.5% |
| COc1ccc(C(C)Nc2nnc(-c3ccccc3)c3ccccc23)cc1OC (racemic) [78 (DL)] | – | 6.2 | inhibition at 0.3 µM (platelet aggregation [1]): 93.6% |
| c1ccc(CCCNc2nnc(-c3ccccc3)c3ccccc23)cc1 [Control 3, reference compound] | 40.7 | 12.6 | – |
| CC(Nc1nnc(-c2ccccc2)c2ccccc12)c1ccccc1F (racemic) [87 (DL)] | 52.4 | – | – |

| SMILES | inhibition at 1 µM (platelet aggregation [1]; 10^-6 M) [%] | inhibition at 0.1 µM (platelet aggregation [1]; 10^-7 M) [%] | other results |
| --- | --- | --- | --- |
| CC(C)C(Nc1nnc(-c2ccccc2)c2ccccc12)c1ccccc1 (racemic) [4 (DL)] | 96.6 | 49.3 | – |
| CC(=O)Oc1ccccc1C(=O)O [Aspirin, reference compound] | – | – | Cardiac infarction inhibitory ratio ([3]; 100 mg/kg p.o.): 10.7% |
| COc1ccc(C(C)Nc2nnc(-c3ccccc3)c3ccccc23)cc1 (racemic) [69 (DL)] | – | 21 | inhibition at 0.3 µM (platelet aggregation [1]): 74.7% |
| CCc1ccc(C(C)Nc2nnc(-c3ccccc3)c3ccccc23)cc1 (racemic) [59 (DL)] | – | 56.5 | – |
| COc1cccc(C(C)Nc2nnc(-c3ccccc3)c3ccccc23)c1 (racemic) [72 (DL)] | 94.8 | 14.9 | – |
| Cc1ccc(C(C)Nc2nnc(-c3ccccc3)c3ccccc23)cc1 (racemic) [56 (DL)] | – | 92.9 | – |
| CC(Nc1nnc(-c2ccccc2)c2ccccc12)c1ccc(Cl)cc1 (racemic) [80 (DL)] | – | 26.3 | inhibition at 0.3 µM (platelet aggregation [1]): 93.3% |
| CC(Nc1nnc(-c2ccccc2)c2ccccc12)c1ccc2c(c1)OCO2 (racemic) [79 (DL)] | – | 6.3 | inhibition at 0.3 µM (platelet aggregation [1]): 95.3% |
| COc1ccccc1C(C)Nc1nnc(-c2ccccc2)c2ccccc12 (racemic) [73 (DL)] | – | 93.3 | – |
| CCCCC(Nc1nnc(-c2ccccc2)c2ccccc12)c1ccccc1 (racemic) [5 (DL)] | 98.4 | 20.6 | – |
| CC(Nc1nnc(-c2ccccc2)c2ccccc12)c1cccc(C(F)(F)F)c1 (racemic) [92 (DL)] | 89.5 | 1.5 | – |
| C[C@@H](Nc1nnc(-c2ccccc2)c2ccccc12)c1ccccc1 [1 (D), D-1-α-methylbenzylamino-4-phenylphthalazine] | – | – | ex vivo Inhibitory ratio (p.o.) (platelet aggregation [2]; 1 mg/kg p.o.): 65.5%; ex vivo Inhibitory ratio (p.o.) (platelet aggregation [2]; 3 mg/kg p.o.): 80.2%; ex vivo Inhibitory ratio (p.o.) (platelet aggregation [2]; 10 mg/kg p.o.): 88.5%; Cardiac infarction inhibitory ratio ([3]; 2 mg/kg p.o.): 81.1%; Cardiac infarction inhibitory ratio ([3]; 10 mg/kg p.o.): 76.6%; in vitro Inhibitory ratio (platelet aggregation [1]; 10^-6 M, 1 µM): 100%; in vitro Inhibitory ratio (platelet aggregation [1]; 10^-7 M, 0.1 µM): 100% |
| CC(Nc1nnc(-c2ccccc2)c2ccccc12)c1ccccc1 (racemic) [1 (DL)] | 84 | 72.2 | ex vivo Inhibitory ratio (p.o.) (platelet aggregation [2]; 1 mg/kg p.o.): 76.2%; ex vivo Inhibitory ratio (p.o.) (platelet aggregation [2]; 3 mg/kg p.o.): 79.8% |
| CC(Nc1nnc(-c2ccccc2)c2ccccc12)c1cccc(F)c1 (racemic) [86 (DL)] | 100 | – | ex vivo Inhibitory ratio (p.o.) (platelet aggregation [2]; 1 mg/kg p.o.): 40.5% |
| CC(Cc1ccccc1)Nc1nnc(-c2ccccc2)c2ccccc12 (centres unmarked) [Control 4, reference compound] | 7.1 | – | – |
| Clc1ccccc1CN1CCc2sccc2C1 [Ticlopidine, reference compound] | – | – | Cardiac infarction inhibitory ratio ([3]; 30 mg/kg p.o.): 10.1% |
